Experiment: Particle size distribution of zaleplon particles by laser diffraction (Malvern Mastersizer)
Format: physicochemical
Conditions: suspended in hexane with 1% Tween 80, sonicated 120 seconds
Procedure: In accordance with the invention, the size distribution of zaleplon particles is determined by laser diffraction. Our method of determining the size of zaleplon particles used a Malvern™ Mastersizer laser diffraction instrument. Samples of the zaleplon were suspended in hexane containing a surfactant, 1% Tween® 80. The suspensions were mixed and then sonicated for 120 seconds to thoroughly disperse the zaleplon particles. The dispersion was then circulated in the flow cell of the Malvern Mastersizer for two minutes before particle size measurements were taken.

| Compound | diameter that 10% of the particles are equal to or less than [μm] | diameter that 90% of the particles are equal to or less than [μm] | median particle size [μm] |
| --- | --- | --- | --- |
| CCN(C(C)=O)c1cccc(-c2ccnc3c(C#N)cnn23)c1 [milled zaleplon, N-[3-(3-cyanopyrazolo[1,5-a]pyrimidin-7-yl)phenyl]-N-ethylacetamide] | 8.3 | 84.6 | 37.0 |
| CCN(C(C)=O)c1cccc(-c2ccnc3c(C#N)cnn23)c1 [Zaleplon, N-[3-(3-cyanopyrazolo[1,5-a]pyrimidin-7-yl)phenyl]-N-ethylacetamide] | 14 | 134 | 55 |
| CCN(C(C)=O)c1cccc(-c2ccnc3c(C#N)cnn23)c1 [micronized zaleplon, N-[3-(3-cyanopyrazolo[1,5-a]pyrimidin-7-yl)phenyl]-N-ethylacetamide] |  | 15.1 | 6.3 |
